Assay results published in publication PMC8851638 (ACS Omega, 2022).
Values after ≈ are worked out from the molar mass of the structure shown. Values joined by “and” are separate entries in the source; they are usually repeats but may differ in a detail not shown here. Equal values may be shown once.

Columns and labels:
B. subtilis [1] = test: Checkerboard combination assay with Ciprofloxacin; format: cell-based
S. epidermidis [2] = test: Checkerboard combination assay with Ciprofloxacin; format: cell-based, Staphylococcus epidermidis
K. pneumoniae (MDR00244) = test: MIC and MBC by broth microdilution; format: cell-based; settings: ratio in parentheses
K. pneumoniae [3] = test: Checkerboard combination assay with Ciprofloxacin; format: cell-based
S. aureus [4] = test: Single-step resistance selection; format: cell-based, Staphylococcus aureus; settings: 4 × MIC, 48 h
S. aureus (MDR00231) [5] = test: Agar well-diffusion antimicrobial sensitivity assay; format: cell-based, Staphylococcus aureus; settings: Staphylococcus aureus, read-out: Inhibition Zone (IZ)
E. coli [6] = test: Single-step resistance selection; format: cell-based; settings: 4 × MIC, 48 h
A. baumannii [7] = test: Checkerboard combination assay with Ciprofloxacin; format: cell-based
E. coli DNA gyrase = E. coli DNA gyrase (Escherichia coli, UniProt P0AES4+P0AES6); test: DNA gyrase inhibition; format: biochemical
[8] = tested on: C. albicans100 (MDR00100); test: MIC and MFC by broth microdilution; format: cell-based, Candida albicans
S. aureus (MDR00231) [9] = test: MIC and MBC by broth microdilution; format: cell-based, Staphylococcus aureus
[10] = tested on: C. albicans100 (MDR00100); test: Agar well-diffusion antimicrobial sensitivity assay; format: cell-based, Candida albicans; settings: Candida albicans, read-out: Inhibition Zone (IZ)
[11] = In vitro cytotoxicity on normal cell line; format: cell-based, green monkey; settings: green monkey, Vero kidney cells
[12] = tested on: Vero: green monkey kidney; test: In vitro cytotoxicity on normal cell line; format: cell-based
K. pneumoniae [13] = test: Single-step resistance selection; format: cell-based; settings: 4 × MIC, 48 h
B. subtilis (MDR00423) = test: MIC and MBC by broth microdilution; format: cell-based
S. epidermidis [14] = test: Single-step resistance selection; format: cell-based, Staphylococcus epidermidis; settings: 4 × MIC, 48 h
C. albicans100 [15] = test: Checkerboard combination assay with Ketoconazole; format: cell-based, Candida albicans
S. epidermidis biofilm = test: Staphylococcus biofilm mass reduction; format: cell-based; settings: at their MIC
C. albicans200 [16] = test: Single-step resistance selection; format: cell-based, Candida albicans; settings: 4 × MIC, 48 h
E. coli [17] = test: Checkerboard combination assay with Ciprofloxacin; format: cell-based
[18] = target: T1, dihydrofolate reductase (DHFR) (Homo sapiens, UniProt P00374); test: DHFR inhibition; format: biochemical
T1 sequence (P00374 1-187): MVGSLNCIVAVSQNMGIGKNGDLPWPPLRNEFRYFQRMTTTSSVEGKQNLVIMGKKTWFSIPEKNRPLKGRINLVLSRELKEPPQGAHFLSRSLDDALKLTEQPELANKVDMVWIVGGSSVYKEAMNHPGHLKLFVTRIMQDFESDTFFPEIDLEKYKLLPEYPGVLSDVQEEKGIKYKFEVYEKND

A. baumannii (MDR00521) = test: MIC and MBC by broth microdilution; format: cell-based
[19] = tested on: S. epidermidis (MDR00223); test: Agar well-diffusion antimicrobial sensitivity assay; format: cell-based, Staphylococcus epidermidis; settings: Staphylococcus epidermidis, read-out: Inhibition Zone (IZ)
C. albicans100 [20] = test: Single-step resistance selection; format: cell-based, Candida albicans; settings: 4 × MIC, 48 h
[21] = tested on: S. epidermidis (MDR00223); test: MIC and MBC by broth microdilution; format: cell-based, Staphylococcus epidermidis
B. subtilis [22] = test: Single-step resistance selection; format: cell-based; settings: 4 × MIC, 48 h
[23] = tested on: BNL: mouse normal liver cells; test: In vitro cytotoxicity on normal cell line; format: cell-based
[24] = In vitro cytotoxicity on normal cell line; format: cell-based, mouse; settings: mouse, BNL normal liver cells
[25] = In vitro cytotoxicity on normal cell line; format: cell-based, rat; settings: rat, H9C2 heart/myocardium cells
[26] = tested on: H9C2: rat heart/myocardium; test: In vitro cytotoxicity on normal cell line; format: cell-based
S. aureus biofilm = test: Staphylococcus biofilm mass reduction; format: cell-based; settings: at their MIC
RBCs = test: Hemolytic assay; format: cell-based; settings: human RBCs; compounds 1.0 mg/mL; Triton X-100 0.1% v/v; 37 °C, 35 min
E. coli (MDR00501) [27] = test: MIC and MBC by broth microdilution; format: cell-based
A. baumannii [28] = test: Single-step resistance selection; format: cell-based; settings: 4 × MIC, 48 h
[29] = tested on: C. albicans200 (MDR00200); test: MIC and MFC by broth microdilution; format: cell-based, Candida albicans
S. aureus [30] = test: Checkerboard combination assay with Ciprofloxacin; format: cell-based, Staphylococcus aureus
E. coli (MDR00501) [31] = test: Agar well-diffusion antimicrobial sensitivity assay; format: cell-based; settings: Escherichia coli, read-out: Inhibition Zone (IZ)
[32] = tested on: C. albicans200 (MDR00200); test: as above; format: cell-based, Candida albicans; settings: Candida albicans, read-out: Inhibition Zone (IZ)
C. albicans200 [33] = test: Checkerboard combination assay with Ketoconazole; format: cell-based, Candida albicans

Chain of E. coli DNA gyrase (P0AES4 whole entry, one chain of several): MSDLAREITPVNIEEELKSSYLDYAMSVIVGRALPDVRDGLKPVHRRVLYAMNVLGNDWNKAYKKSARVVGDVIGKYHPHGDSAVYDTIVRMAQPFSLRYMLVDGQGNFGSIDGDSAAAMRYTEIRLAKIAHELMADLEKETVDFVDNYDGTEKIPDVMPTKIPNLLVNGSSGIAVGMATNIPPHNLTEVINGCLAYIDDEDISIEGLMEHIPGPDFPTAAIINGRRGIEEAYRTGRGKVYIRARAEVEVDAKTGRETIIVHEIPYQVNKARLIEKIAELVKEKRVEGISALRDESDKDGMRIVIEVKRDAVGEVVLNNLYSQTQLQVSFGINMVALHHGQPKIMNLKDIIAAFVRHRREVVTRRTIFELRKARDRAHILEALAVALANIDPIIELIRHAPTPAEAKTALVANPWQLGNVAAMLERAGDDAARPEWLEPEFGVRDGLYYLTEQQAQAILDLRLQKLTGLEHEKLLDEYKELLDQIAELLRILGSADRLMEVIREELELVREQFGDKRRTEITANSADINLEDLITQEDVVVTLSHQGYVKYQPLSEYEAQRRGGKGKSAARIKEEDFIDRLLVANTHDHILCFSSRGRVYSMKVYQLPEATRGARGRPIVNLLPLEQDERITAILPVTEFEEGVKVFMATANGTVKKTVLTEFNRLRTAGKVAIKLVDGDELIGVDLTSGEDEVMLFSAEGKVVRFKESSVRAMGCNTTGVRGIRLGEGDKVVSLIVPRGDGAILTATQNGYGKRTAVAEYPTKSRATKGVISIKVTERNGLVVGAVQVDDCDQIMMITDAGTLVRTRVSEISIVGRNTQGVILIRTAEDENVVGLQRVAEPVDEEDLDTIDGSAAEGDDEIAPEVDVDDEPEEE

N#CC(=Cc1cn(-c2ccccc2)nc1-c1ccccc1)C1=NC(=O)CS1 [Compound 4a, 3-(1,3-Diphenyl-1H-pyrazol-4-yl)-2-(4-oxo-4,5-dihydrothiazol-2-yl)acrylonitrile]
combination effect (B. subtilis [1]): S (S: synergism)
fractional inhibitory concentration index (FICI) (B. subtilis [1]): 0.5
combination effect (S. epidermidis [2]): S (S: synergism)
fractional inhibitory concentration index (FICI) (S. epidermidis [2]): 0.5
MBC/MIC (K. pneumoniae (MDR00244)): 0.5
combination effect (K. pneumoniae [3]): S (S: synergism)
fractional inhibitory concentration index (FICI) (K. pneumoniae [3]): 0.5
Single-step resistance frequency (mutation frequency) (S. aureus [4]): 1.61 × 10^–7
zone of inhibition at 100000 µg/mL (S. aureus (MDR00231) [5]): 31 ± 0.18 mm
Single-step resistance frequency (mutation frequency) (E. coli [6]): 1.20 × 10^–9
combination effect (A. baumannii [7]): S (S: synergism)
fractional inhibitory concentration index (FICI) (A. baumannii [7]): 0.25
IC50 (E. coli DNA gyrase): 18.2 ± 0.67 µM
MIC (mean ± SEM) ([8]; C. albicans100, broth microdilution): 0.45 ± 0.3 µg/mL (≈ 1.21 µM)
MFC/MIC ([8]; C. albicans100, ratio in parentheses): 1
MIC ([8]; Candida albicans, read-out: MIC (mean ± SEM), C. albicans100, broth microdilution): 0.45 µg/mL (≈ 1.21 µM)
MBC/MIC (S. aureus (MDR00231) [9]; S. aureus, ratio in parentheses): 0.5
MIC (S. aureus (MDR00231) [9]; Staphylococcus aureus, read-out: MIC (mean ± SEM), S. aureus, broth microdilution): 0.43 ± 0.4 µg/mL (≈ 1.16 µM)
zone of inhibition at 100000 µg/mL [10]: 29 ± 0.23 mm
IC50 at 72 h [11]: 86.9 ± 0.97 µM
Selectivity index against DHFR ([12]; IC50 of Vero / IC50 of DHFR): 88.70
Selectivity index against DNA gyrase ([12]; IC50 of Vero / IC50 of DNA gyrase): 4.76
Single-step resistance frequency (mutation frequency) (K. pneumoniae [13]): 1.54 × 10^–9
MBC/MIC (B. subtilis (MDR00423); B. subtilis, ratio in parentheses): 0.5
MIC (B. subtilis (MDR00423); Bacillus subtilis, read-out: MIC (mean ± SEM), B. subtilis, broth microdilution): 0.45 ± 0.5 µg/mL (≈ 1.21 µM)
Single-step resistance frequency (mutation frequency) (S. epidermidis [14]): 2.43 × 10^–7
combination effect (C. albicans100 [15]): S (S: synergism)
fractional inhibitory concentration index (FICI) (C. albicans100 [15]): 0.5
reduction of biofilm formation (S. epidermidis biofilm): 64.8%
Single-step resistance frequency (mutation frequency) (C. albicans200 [16]): 1.58 × 10^–7
combination effect (E. coli [17]): S (S: synergism)
fractional inhibitory concentration index (FICI) (E. coli [17]): 0.25
IC50 [18]: 0.98 ± 0.11 µM
MIC (mean ± SEM) (A. baumannii (MDR00521); broth microdilution): 0.44 ± 0.3 µg/mL (≈ 1.19 µM)
MBC/MIC (A. baumannii (MDR00521); ratio in parentheses): 1
zone of inhibition at 100000 µg/mL [19]: 28 ± 0.13 mm
Single-step resistance frequency (mutation frequency) (C. albicans100 [20]): 1.40 × 10^–8
MBC/MIC ([21]; S. epidermidis, ratio in parentheses): 1
MIC ([21]; Staphylococcus epidermidis, read-out: MIC (mean ± SEM), S. epidermidis, broth microdilution): 0.48 ± 0.2 µg/mL (≈ 1.3 µM)
Single-step resistance frequency (mutation frequency) (B. subtilis [22]): 2.20 × 10^–8
Selectivity index against DHFR ([23]; IC50 of BNL / IC50 of DHFR): 101.44
Selectivity index against DNA gyrase ([23]; IC50 of BNL / IC50 of DNA gyrase): 5.44
IC50 at 72 h [24]: 99.4 ± 1.04 µM
IC50 at 72 h [25]: 103 ± 1.5 µM
Selectivity index against DHFR ([26]; IC50 of H9C2 / IC50 of DHFR): 105.40
Selectivity index against DNA gyrase ([26]; IC50 of H9C2 / IC50 of DNA gyrase): 5.66
reduction of biofilm formation (S. aureus biofilm): 74.3%
%lysis of RBCs (RBCs): 7.55% and 7.55 ± 0.63%
MIC (mean ± SEM) (E. coli (MDR00501) [27]; E. coli, broth microdilution): 0.45 ± 0.2 µg/mL (≈ 1.21 µM)
MBC/MIC (E. coli (MDR00501) [27]; E. coli, ratio in parentheses): 0.5
MIC (E. coli (MDR00501) [27]; Escherichia coli, read-out: MIC (mean ± SEM), E. coli, broth microdilution): 0.45 µg/mL (≈ 1.21 µM)
Single-step resistance frequency (mutation frequency) (A. baumannii [28]): 1.00 × 10^–9
MIC (mean ± SEM) ([29]; C. albicans200, broth microdilution): 0.22 ± 0.2 µg/mL (≈ 0.594 µM)
MFC/MIC ([29]; C. albicans200, ratio in parentheses): 0.5
MIC ([29]; Candida albicans, read-out: MIC (mean ± SEM), C. albicans200, broth microdilution): 0.22 µg/mL (≈ 0.594 µM)
combination effect (S. aureus [30]): S (S: synergism)
fractional inhibitory concentration index (FICI) (S. aureus [30]): 0.25
zone of inhibition at 100000 µg/mL (E. coli (MDR00501) [31]): 26 ± 0.33 mm
zone of inhibition at 100000 µg/mL [32]: 31 ± 0.22 mm
combination effect (C. albicans200 [33]): S (S: synergism)
fractional inhibitory concentration index (FICI) (C. albicans200 [33]): 0.5
